Source: patent US20180369244A1, “BTK Inhibitors to Treat Solid Tumors Through Modulation of the Tumor Microenvironment” (Acerta Pharma B.V., priority 2014, published 2018)

Key:
B cell receptor = test: Whole blood B cell receptor signalling, CD69 on CD19+ B cells; assay type: cell-based; settings: 2 h incubation, anti-human IgD 18 h
Method: Blood from four healthy donors was incubated for 2 hours with the compounds shown over a concentration range, and then stimulated with anti-human IgD [10 μg/mL] for 18 hours. The mean fluorescent intensity (MFI) of CD69 (and CD86, data not shown) on gated CD19+ B cells was measured by flow cytometry. MFI values were normalized so that 100% represents CD69 level in stimulated cells without inhibitor, while 0% represents the unstimulated/no drug condition. […]

[1] = system: human platelet-mediated thrombosis; settings: mouse, in vivo
Method: Injury to the vessel wall of arterioles ([…] diameter) was performed using a pulsed nitrogen dye laser (440 nm, Photonic Instruments) applied through a 20× water-immersion Olympus objective (LUMPlanF1, 0.5 numerical aperature (NA)) of a Zeiss Axiotech vario microscope. […] The extent of thrombus formation was assessed for 2 minutes after injury and the area (μm^2) of coverage determined (Image IQ, Andor Technology).
The BTK inhibitor-treated human platelets were fluorescently labeled and infused continuously through a catheter inserted into the femoral artery.

CD8+ T cells [2] = test: CD8+ T cell viability; assay type: cell-based; settings: 4 days culture
Method: Total T cells were plated on anti-TCR and anti-CD28 coated wells in the presence of both BTK inhibitors. Neutral culture conditions were used that will not polarize T cells to a helper lineage. The cells are grown for 4 days and are then stained with anti-CD4, anti-CD8 and LIVE/DEAD reagent to determine if the drugs have selective effects on either the CD4^+ or CD8^+ cells. Statistical significance was calculated using the Mann Whitney T-test. […]

Raji cells = test: Rituximab ADCC chromium release assay; assay type: cell-based, human; settings: 1 μM
From the text: Cell culture conditions were as follows. […] The HER18 cells were maintained in DEM supplemented with fetal bovine serum, penicillin-streptomycin and. Prior to assay, HER18 cells were harvested using trypsin-EDTA, washed with phosphate-buffered saline (PBS) containing 5% serum and viable cells were counted. For culture of primary target cells, peripheral blood from CLL patients was subject to density centrifugation to obtain peripheral blood mononuclear cells (PBMC). Cell preparations were washed and then subject to positive selection of CD5+CD19^+ CLL cells using magnetic beads (MACS, Miltenyi Biotech). Cell preparations were used fresh after selection. NK cells from CLL patients and healthy volunteers were enriched from peripheral blood collected in sodium citrate anti-coagulant tubes and then subject to density centrifugation. Removal of non NK cells was performed using negative selection by MACS separation. Freshly isolated NK cells were washed three times, enumerated, and then used immediately for ADCC assays.
ADCC assays were performed as follows. Briefly, target cells (Raji or primary CLL) were labeled by incubation at 37° C. with 100 μCi ^51Cr for 4 hours prior to co-culture with NK cells. Cells were washed, enumerated, and then added in triplicate to prepared 96-well plates containing treated NK cells at an effector:target (E:T) ratio of 25:1. […] The effect of NK cell natural cytotoxicity was assessed in wells containing no rituximab. Cultures were incubated at 37° C. for 4 hours, and then centrifuged. Supernatants were harvested and ^51Cr release was measured by liquid scintillation counting. All experiments were performed in triplicate.

NK cells = test: Antibody-dependent NK cell degranulation (CD107a flow cytometry); assay type: cell-based, human; settings: DHL-4 target cells
[3] = system: GPVI platelet aggregation; test: GPVI platelet aggregation (convulxin-induced); assay type: cell-based, human
Method: GPVI platelet aggregation was measured for Formula (II) and Formula (X) (ibrutinib). Blood was obtained from untreated humans, and platelets were purified from […] by centrifugation. Cells were resuspended to a final concentration of […] in buffer containing 145 mmol/L NaCl, 10 mmol/L HEPES, 0.5 mmol/L Na2HPO4, 5 mmol/L KCl, 2 mmol/L MgCl2, 1 mmol/L CaCl2, and 0.1% glucose, at pH 7.4. Stock solutions of Convulxin (CVX) GPVI were prepared on the day of experimentation and added to platelet suspensions 5 minutes (37° C., 1200 rpm) before the induction of aggregation. Aggregation was assessed with a Chronolog Lumi-Aggregometer (model 540 VS; Chronolog, Havertown, Pa.) and permitted to proceed for 6 minutes after the addition of agonist. The results are reported as maximum percent change in light transmittance from baseline with platelet buffer used as a reference.
In FIG. 23, the results of CVX-induced (250 ng/mL) human platelet aggregation results before and 15 minutes after administration of the BTK inhibitors to 6 healthy individuals are shown.

CD4+ T cells = test: Th17 and Treg development from CD4+ T cells; assay type: cell-based
Method: Enriched CD4^+ T cells are plated on 24-well culture dishes that have been precoated 2 hr with 250 μL anti-TCRβ (0.5 μg/mL) plus anti-CD28 (5 μg/mL) at 37° C. in PBS. The cells are then supplemented with media containing BTK inhibitors along with the skewing cytokines as indicated in the following. The Th17 and Treg cultures are grown for 4 days before analysis. The cells are maintained for an additional 3 days with skewing cytokines (Th17; 20 ng/mL IL-6, 0.5 ng/mL TGF-β, 5 μg/mL IL-4, 5 μg/mL IFN-γ and Treg; 0.5 ng/mL TGF-β, 5 μg/mL IL-4, 5 μg/mL IFN-γ) and are supplemented with IL2 as a growth factor.

CLL, MCL, NHL patients = settings: monotherapy, dose levels through 840 mg; cited from earlier work
CD8+ T cells [4] = test: Cytotoxic T cell (CTL) assay; assay type: cell-based; settings: 500 nM
Method: CD8^+ T cells have at least two primary effector functions: (1) produce large amounts of IFN-γ (which activates macrophages), and (2) cytolytic activity. […] The targets were B lymphoblasts from lipopolysaccharide (LPS) treated cultures. The assay was performed by incubating different ratios of effectors:targets for 4 hours.

CLL = settings: cited from earlier work
[5] = Phase 1 portion, relapsed/refractory CLL (n=13)

Compound | EC50 (B cell receptor) [nM] | effect on thrombus formation [1] | CD8+ T cell viability (CD8+ T cells [2]) | rituximab ADCC, NK cell activity (Raji cells; FIG. 31) | antibody-dependent lysis of rituximab-coated Raji cells (Raji cells; healthy donor NK cells) | reduction of rituximab-stimulated NK cell degranulation (NK cells) [%] | GPVI platelet aggregation ([3]; FIG. 22 and FIG. 23) | IC50 ([3]; Homo sapiens, Platelet, FIG. 22) [nM] | Th17 and Treg development (CD4+ T cells) | maximum tolerated dose (MTD) (CLL, MCL, NHL patients) | CD8+ T cell function as % cytotoxicity (CD8+ T cells [4]) | CD8+ T cell function as IFN-γ levels (CD8+ T cells [4]) | response rate (CLL; Phase 1, previously treated CLL, monotherapy) [%] | infusion related reactions, Grade 3 (CLL; [5]) [%] | patients with all grade AE (infusion related reactions) (CLL; [5]) [%] | IRR cases developing symptoms of hypotension (CLL; Phase 2 portion) [%] | hypotension cases that were Grade 3 reactions (CLL; Phase 2 portion) [%] | patients who developed IRR (CLL; Phase 2 portion) [%]
C=CC(=O)Nc1cccc(Nc2nc(Nc3ccc(OCCOC)cc3)ncc2F)c1 [CC-292, N-(3-((5-fluoro-2-((4-(2-methoxyethoxy)phenyl)amino)pyrimidin-4-yl)amino)phenyl)acrylamide] | 121 | interfere with thrombus formation | – | – | – | – | – | – | – | – | – | – | – | – | – | – | – | –
C=CC(=O)N1CCC[C@@H](n2nc(-c3ccc(Oc4ccccc4)cc3)c3c(N)ncnc32)C1 [ibrutinib, 1-[(3R)-3-[4-amino-3-(4-phenoxyphenyl)-1H-pyrazolo[3,4-d]pyrimidin-1-yl]piperidin-1-yl]prop-2-en-1-one, reference compound] | 6.1 | interfere with thrombus formation | strong, negative effect | completely inhibited ADCC | strongly inhibited the antibody-dependent lysis of target cells | ~50 | significantly inhibits GPVI platelet aggregation | 130 | a profound inhibition of Th17 cells and an increase in Treg development | No maximum tolerated dose (MTD) was apparent | affects CD8^+ T cell function | significant loss of function | – | – | – | – | – | –
obinutuzumab: humanized monoclonal antibody directed against CD20, type II glycoengineered | – | – | – | – | – | – | – | – | – | – | – | – | 62 | 15 | 100 | 60 | 25 | 95
